The values below are quoted from earlier work in patent US20220409614A1, “TREATING BEHAVIORAL AND PSYCHOLOGICAL SYMPTOMS IN DEMENTIA PATIENTS” (SUVEN LIFE SCIENCES LIMITED, priority 2019, published 2022).

One data set has as its system patients with AD. Conditions: citalopram treatment group; cited from earlier work.
For data set [1] the following is noted: cited from earlier work.
For data set [2] the following is noted: short-term treatment; cited from earlier work.

Read-outs that look alike come from different tables or passages of the source.

`CN(C)CCCC1(c2ccc(F)cc2)OCc2cc(C#N)ccc21` (stereo not drawn) [Citalopram]: in the data set with patients with AD, the QT interval entry is “QT interval prolongation” and the cognition entry is “Worsening of cognition”.
As to `CC(C)COc1ccc(CNC(=O)N(Cc2ccc(F)cc2)C2CCN(C)CC2)cc1` [Pimavanserin], the “effect on NPI-NH psychosis scale” value is on record as “statistically significant effect” in data set [1] (week 6) and “no effect was evident” in data set [1] (week 12).
Turning to `O=C1CCc2ccc(OCCCCN3CCN(c4cccc(Cl)c4Cl)CC3)cc2N1` [aripiprazole], the “symptomatic benefit in BPSD” value in data set [2] is “modest symptomatic benefit”.
Consider `Cc1nc2n(c(=O)c1CCN1CCC(c3noc4cc(F)ccc34)CC1)CCCC2` [risperidone], for which, in data set [2], the “symptomatic benefit in BPSD” value is “modest symptomatic benefit”.
